# Activity calls are given as the source filed them. No cut-off for these calls is given here.
# What was measured:
# THP-1 [1] = test: Antiinflammatory activity in PMA-differentiated human THP-1 macrophages assessed as decrease in IL-1beta production at 1 to 10 uM incubated for 24 hrs by ELISA coupled qRT-PCR analysis; type: functional, cell-based; details: dose 1-10 µM
# THP-1 [2] = test: Antiinflammatory activity in PMA-differentiated human THP-1 macrophages assessed as increase in IL-10 production at 1 to 10 uM incubated for 24 hrs by ELISA coupled qRT-PCR analysis; type: functional, cell-based; details: dose 1-10 µM
# THP-1 [3] = test: Antiinflammatory activity against LPS-activated PMA-differentiated human THP-1 macrophages assessed as increase in IL-10 production at 10 uM incubated for 24 hrs by ELISA coupled qRT-PCR analysis; type: functional, cell-based
# Cannabinoid receptor 2 [4] = biological target: T1, Cannabinoid receptor 2 (Homo sapiens, UniProt P34972); test: Displacement of [3H]-CP55940 from human CB2 receptor expressed in HEK293 cell membrane assessed as inhibition constant incubated for 90 mins by radioligand competition binding assay; type: cell membranes
# T1 sequence (P34972 whole entry): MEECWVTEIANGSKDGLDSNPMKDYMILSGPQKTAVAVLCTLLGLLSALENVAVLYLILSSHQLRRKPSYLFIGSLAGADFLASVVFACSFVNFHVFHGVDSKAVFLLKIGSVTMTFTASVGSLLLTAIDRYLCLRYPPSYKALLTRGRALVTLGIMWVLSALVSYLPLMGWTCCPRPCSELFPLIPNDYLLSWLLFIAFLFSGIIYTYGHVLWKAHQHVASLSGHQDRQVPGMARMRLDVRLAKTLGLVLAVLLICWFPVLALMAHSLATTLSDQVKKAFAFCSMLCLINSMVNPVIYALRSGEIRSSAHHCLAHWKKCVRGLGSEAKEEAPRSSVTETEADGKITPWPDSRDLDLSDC
# THP-1 [5] = test: Antiinflammatory activity against LPS-activated PMA-differentiated human THP-1 macrophages assessed as increase in IL-4 production at 10 uM incubated for 24 hrs by ELISA coupled qRT-PCR analysis; type: functional, cell-based
# THP-1 [6] = test: Antiinflammatory activity in human THP-1 monocytes assessed as decrease in IL-6 production at 1 to 10 uM incubated for 24 hrs by ELISA coupled qRT-PCR analysis; type: functional, cell-based; details: dose 1-10 µM
# THP-1 [7] = test: Antiinflammatory activity in human THP-1 monocytes assessed as increase in IL-10 production at 1 to 10 uM incubated for 24 hrs by ELISA coupled qRT-PCR analysis; type: functional, cell-based; details: dose 1-10 µM
# THP-1 [8] = test: Antiinflammatory activity in PMA-differentiated human THP-1 macrophages assessed as decrease in IFN-gamma production at 1 to 10 uM incubated for 24 hrs by ELISA coupled qRT-PCR analysis; type: functional, cell-based; details: dose 1-10 µM
# THP-1 [9] = test: Antiinflammatory activity in human THP-1 monocytes assessed as decrease in IFN-gamma production at 1 to 10 uM incubated for 24 hrs by ELISA coupled qRT-PCR analysis; type: functional, cell-based; details: dose 1-10 µM
# THP-1 [10] = test: Antiinflammatory activity against LPS-activated human THP-1 monocytes assessed as decrease in IL-1beta production at 1 to 10 uM incubated for 24 hrs by ELISA coupled qRT-PCR analysis; type: functional, cell-based; details: dose 1-10 µM
# THP-1 [11] = test: Antiinflammatory activity in PMA-differentiated human THP-1 macrophages assessed as decrease in TNF-alpha production at 1 to 10 uM incubated for 24 hrs by ELISA coupled qRT-PCR analysis; type: functional, cell-based; details: dose 1-10 µM
# THP-1 [12] = test: Antiinflammatory activity against LPS-activated human THP-1 monocytes assessed as increase in IL-10 production at 1 to 10 uM incubated for 24 hrs by ELISA coupled qRT-PCR analysis; type: functional, cell-based; details: dose 1-10 µM
# THP-1 [13] = test: Antiinflammatory activity against LPS-activated human THP-1 monocytes assessed as increase in IL-4 production at 1 to 10 uM incubated for 24 hrs by ELISA coupled qRT-PCR analysis; type: functional, cell-based; details: dose 1-10 µM
# THP-1 [14] = test: Antiinflammatory activity in human THP-1 monocytes assessed as decrease in IL-1beta production at 1 to 10 uM incubated for 24 hrs by ELISA coupled qRT-PCR analysis; type: functional, cell-based; details: dose 1-10 µM
# THP-1 [15] = test: Antiinflammatory activity against LPS-activated human THP-1 monocytes assessed as decrease in IL-6 production at 1 to 10 uM incubated for 24 hrs by ELISA coupled qRT-PCR analysis; type: functional, cell-based; details: dose 1-10 µM
# THP-1 [16] = test: Antiinflammatory activity against LPS-activated PMA-differentiated human THP-1 macrophages assessed as decrease in IL-1beta production at 1 to 10 uM incubated for 24 hrs by ELISA coupled qRT-PCR analysis; type: functional, cell-based; details: dose 1-10 µM
# THP-1 [17] = test: Antiinflammatory activity against LPS-activated PMA-differentiated human THP-1 macrophages assessed as decrease in IL-6 production at 1 to 10 uM incubated for 24 hrs by ELISA coupled qRT-PCR analysis; type: functional, cell-based; details: dose 1-10 µM
# THP-1 [18] = test: Antiinflammatory activity against LPS-activated PMA-differentiated human THP-1 macrophages assessed as decrease in TNF-alpha production at 1 to 10 uM incubated for 24 hrs by ELISA coupled qRT-PCR analysis; type: functional, cell-based; details: dose 1-10 µM
# Cannabinoid receptor 1 [19] = biological target: T2, Cannabinoid receptor 1 (Homo sapiens, UniProt P21554); test: Displacement of [3H]-CP55940 from human CB1 receptor expressed in HEK293 cell membrane at 1 uM incubated for 60 mins by radioligand competition binding assay relative to control; type: cell membranes
# T2 sequence (P21554 whole entry): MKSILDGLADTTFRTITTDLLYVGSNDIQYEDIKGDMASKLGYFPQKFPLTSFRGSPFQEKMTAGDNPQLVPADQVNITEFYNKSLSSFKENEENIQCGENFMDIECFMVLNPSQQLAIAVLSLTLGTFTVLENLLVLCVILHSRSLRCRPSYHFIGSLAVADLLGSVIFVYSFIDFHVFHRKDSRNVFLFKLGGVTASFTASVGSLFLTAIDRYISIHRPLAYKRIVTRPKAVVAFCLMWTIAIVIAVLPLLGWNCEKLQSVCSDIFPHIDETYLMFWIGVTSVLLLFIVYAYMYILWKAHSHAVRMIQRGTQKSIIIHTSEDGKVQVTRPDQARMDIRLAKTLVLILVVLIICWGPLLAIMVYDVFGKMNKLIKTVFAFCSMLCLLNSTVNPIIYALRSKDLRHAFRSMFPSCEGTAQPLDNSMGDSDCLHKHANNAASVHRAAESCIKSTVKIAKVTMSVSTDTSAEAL
# THP-1 [20] = test: Antiinflammatory activity in PMA-differentiated human THP-1 macrophages assessed as increase in IL-4 production at 1 to 10 uM incubated for 24 hrs by ELISA coupled qRT-PCR analysis; type: functional, cell-based; details: dose 1-10 µM
# THP-1 [21] = test: Antiinflammatory activity in human THP-1 monocytes assessed as decrease in TNF-alpha production at 1 to 10 uM incubated for 24 hrs by ELISA coupled qRT-PCR analysis; type: functional, cell-based; details: dose 1-10 µM
# THP-1 [22] = test: Antiinflammatory activity in human THP-1 monocytes assessed as increase in IL-4 production at 1 to 10 uM incubated for 24 hrs by ELISA coupled qRT-PCR analysis; type: functional, cell-based; details: dose 1-10 µM
# THP-1 [23] = test: Antiinflammatory activity against LPS-activated human THP-1 monocytes assessed as decrease in IFN-gamma production at 1 to 10 uM incubated for 24 hrs by ELISA coupled qRT-PCR analysis; type: functional, cell-based; details: dose 1-10 µM
# THP-1 [24] = test: Antiinflammatory activity against LPS-activated PMA-differentiated human THP-1 macrophages assessed as decrease in IFN-gamma production at 1 to 10 uM incubated for 24 hrs by ELISA coupled qRT-PCR analysis; type: functional, cell-based; details: dose 1-10 µM
# Cannabinoid receptor 2 [25] = biological target: T1, Cannabinoid receptor 2; test: Antagonist activity at human CB2 receptor expressed in CHO-K1 cells assessed as reversal of JWH-133 mediated cAMP reduction preincubated with compound for 15 mins followed by JWH-133 addition and measured after 30 mins in the presence of NKH-477 by luminescence based analysis; type: functional, cell-based; details: filed as antagonist, time 45.0 min
# THP-1 [26] = test: Antiinflammatory activity against LPS-activated human THP-1 monocytes assessed as decrease in TNF-alpha production at 1 to 10 uM incubated for 24 hrs by ELISA coupled qRT-PCR analysis; type: functional, cell-based; details: dose 1-10 µM
# THP-1 [27] = test: Antiinflammatory activity in PMA-differentiated human THP-1 macrophages assessed as decrease in IL-6 production at 1 to 10 uM incubated for 24 hrs by ELISA coupled qRT-PCR analysis; type: functional, cell-based; details: dose 1-10 µM
# Cannabinoid receptor 2 [28] = biological target: T1, Cannabinoid receptor 2; test: Displacement of [3H]-CP55940 from human CB2 receptor expressed in HEK293 cell membrane at 1 uM incubated for 90 mins by radioligand competition binding assay relative to control; type: cell membranes
# Cannabinoid receptor 2 [29] = biological target: T1, Cannabinoid receptor 2; test: Agonist activity at human CB2 receptor expressed in CHO-K1 cells assessed as inhibition of NKH-477 induced cAMP production incubated for 30 mins by luminescence based analysis; type: functional, cell-based
# Cannabinoid receptor 2 [30] = biological target: T1, Cannabinoid receptor 2; test: Agonist activity at human CB2 receptor expressed in CHO-K1 cells assessed as inhibition of NKH-477 induced cAMP production by measuring maximal efficacy incubated for 30 mins by luminescence based analysis relative to control; type: functional, cell-based; details: filed as agonist
# Cannabinoid receptor 1 [31] = biological target: T2, Cannabinoid receptor 1; test: Displacement of [3H]-CP55940 from human CB1 receptor expressed in HEK293 cell membrane assessed as inhibition constant incubated for 60 mins by radioligand competition binding assay; type: cell membranes
smiles,measurement,setting,value
CCCCCNc1ccc(-c2ccccc2)cc1C(=O)NC12CC3CC(CC(C3)C1)C2,Activity,THP-1 [1],inactive
same,Activity,THP-1 [2],inactive
same,Activity,THP-1 [3],inactive
same,Ki,Cannabinoid receptor 2 [4],47.8 nM
same,Activity,THP-1 [5],inactive
same,Activity,THP-1 [6],inactive
same,Activity,THP-1 [7],inactive
same,Activity,THP-1 [8],inactive
same,Activity,THP-1 [9],inactive
same,Activity,THP-1 [10],inactive
same,Activity,THP-1 [11],inactive
same,Activity,THP-1 [12],inactive
same,Activity,THP-1 [13],inactive
same,Activity,THP-1 [14],inactive
same,Activity,THP-1 [15],inactive
same,Activity,THP-1 [16],inactive
same,Activity,THP-1 [17],inactive
same,Activity,THP-1 [18],inactive
same,Activity,Cannabinoid receptor 1 [19],5%
same,Activity,THP-1 [20],inactive
same,Activity,THP-1 [21],inactive
same,Activity,THP-1 [22],inactive
same,Activity,THP-1 [23],inactive
same,Activity,THP-1 [24],inactive
same,Activity,Cannabinoid receptor 2 [25],Active
same,Activity,THP-1 [26],inactive
same,Activity,THP-1 [27],inactive
CCCCCNc1ccc(-c2cccc(C)c2)cc1C(=O)NC12CC3CC(CC(C3)C1)C2,Activity,Cannabinoid receptor 2 [28],37%
same,Activity,Cannabinoid receptor 1 [19],14%
CCCCCCCNc1ccc(Br)cc1C(=O)NC12CC3CC(CC(C3)C1)C2,Activity,Cannabinoid receptor 2 [28],16%
same,Activity,Cannabinoid receptor 1 [19],8%
CCCCCNc1ccc(-c2cccc(F)c2)cc1C(=O)NC12CC3CC(CC(C3)C1)C2,Ki,Cannabinoid receptor 2 [4],71 nM
same,EC50,Cannabinoid receptor 2 [29],5250 nM
same,Activity,Cannabinoid receptor 1 [19]; filed as agonist,42%
same,Emax,Cannabinoid receptor 2 [30],86.6%
COc1ccc2c(c1)c(CCN1CCOCC1)c(C)n2C(=O)c1cccc(Cl)c1Cl,Ki,Cannabinoid receptor 2 [4],6.9 nM
CCCCCCNc1ccccc1C(=O)NC12CC3CC(CC(C3)C1)C2,Ki,Cannabinoid receptor 2 [4],485 nM
same,Activity,Cannabinoid receptor 1 [19],6%
CCCC(C)(C)c1ccc2c(c1)OC(C)(C)[C@@H]1CC=C(C)C[C@@H]21,EC50,Cannabinoid receptor 2 [29],169000 nM
CCCCCNc1ccc(-c2cccnc2)cc1C(=O)NC12CC3CC(CC(C3)C1)C2,Ki,Cannabinoid receptor 2 [4],330 nM
same,EC50,Cannabinoid receptor 2 [29],10400 nM
same,Activity,Cannabinoid receptor 1 [19],1%
same,Emax,Cannabinoid receptor 2 [30],98.1%
CCCCCNc1ccc(-c2ccccc2)cc1C(=O)NC1CCCCC1,Activity,Cannabinoid receptor 2 [28],21%
same,Activity,Cannabinoid receptor 1 [19],3%
CCCCCNc1ccc(-c2ccc(OC)cc2)cc1C(=O)NC12CC3CC(CC(C3)C1)C2,Ki,Cannabinoid receptor 2 [4],148 nM
same,Activity,Cannabinoid receptor 1 [19],23%
CCCCCNc1ccc(Br)cc1C(=O)NC12CC3CC(CC(C3)C1)C2,Ki,Cannabinoid receptor 2 [4],456 nM
same,Activity,Cannabinoid receptor 1 [19],5%
CCCCCCNc1ccc(-c2cccs2)cc1C(=O)NC12CC3CC(CC(C3)C1)C2,Ki,Cannabinoid receptor 2 [4],465 nM
same,Activity,Cannabinoid receptor 1 [19],32%
CCCCCCNc1ccc(Br)cc1C(=O)NC12CC3CC(CC(C3)C1)C2,Activity,Cannabinoid receptor 2 [28],26%
same,Activity,Cannabinoid receptor 1 [19],17%
CCCCCCCNc1ccccc1C(=O)NC12CC3CC(CC(C3)C1)C2,Ki,Cannabinoid receptor 2 [4],923 nM
same,Activity,Cannabinoid receptor 1 [19],4%
CCCCCNc1ccc(-c2cccc(C(N)=O)c2)cc1C(=O)NC12CC3CC(CC(C3)C1)C2,Activity,Cannabinoid receptor 2 [28],21%
same,Activity,Cannabinoid receptor 1 [19],3%
CCCCCCNc1ccc(-c2ccccc2)cc1C(=O)NC12CC3CC(CC(C3)C1)C2,Ki,Cannabinoid receptor 2 [4],209 nM
same,Activity,Cannabinoid receptor 1 [19],35%
CCCCCNc1ccc(-c2cccs2)cc1C(=O)NC12CC3CC(CC(C3)C1)C2,Ki,Cannabinoid receptor 2 [4],2600 nM
same,Activity,Cannabinoid receptor 1 [19],15%
CCCCCCNc1ccc(-c2cccnc2)cc1C(=O)NC12CC3CC(CC(C3)C1)C2,Ki,Cannabinoid receptor 2 [4],6500 nM
same,Activity,Cannabinoid receptor 1 [19],9%
CCCCCNc1ccc(-c2ccc(C(N)=O)cc2)cc1C(=O)NC12CC3CC(CC(C3)C1)C2,Activity,Cannabinoid receptor 2 [28],19%
same,Activity,Cannabinoid receptor 1 [19],14%
CCCCCCCNc1ccc(-c2cccs2)cc1C(=O)NC12CC3CC(CC(C3)C1)C2,Ki,Cannabinoid receptor 2 [4],160 nM
same,EC50,Cannabinoid receptor 2 [29],5600 nM
same,Activity,Cannabinoid receptor 1 [19],7%
same,Emax,Cannabinoid receptor 2 [30],75%
CCCCCNc1ccc(-c2ccc(F)cc2)cc1C(=O)NC12CC3CC(CC(C3)C1)C2,Ki,Cannabinoid receptor 1 [31],754 nM
same,Ki,Cannabinoid receptor 2 [4],89.5 nM
CCCCCNc1ccc(-c2cccc(OC)c2)cc1C(=O)NC12CC3CC(CC(C3)C1)C2,Activity,Cannabinoid receptor 2 [28],25%
same,Activity,Cannabinoid receptor 1 [19],28%
CCCCCCCNc1ccc(-c2cccnc2)cc1C(=O)NC12CC3CC(CC(C3)C1)C2,Activity,Cannabinoid receptor 2 [28],31%
same,Activity,Cannabinoid receptor 1 [19],16%
CCCCCCCNc1ccc(-c2ccccc2)cc1C(=O)NC12CC3CC(CC(C3)C1)C2,Ki,Cannabinoid receptor 2 [4],1180 nM
same,Activity,Cannabinoid receptor 1 [19],22%
Cc1c(C(=O)NC23CC4CC(CC(C4)C2)C3)nn(CCCCCO)c1-c1ccccc1,Ki,Cannabinoid receptor 2 [4]; hek293,0.08 nM
CCCCCNc1ccc(-c2ccc(C(=O)OC)cc2)cc1C(=O)NC12CC3CC(CC(C3)C1)C2,Activity,Cannabinoid receptor 2 [28],12%
same,Activity,Cannabinoid receptor 1 [19],6%
CCCCCNc1ccc(-c2ccc(C)cc2)cc1C(=O)NC12CC3CC(CC(C3)C1)C2,Ki,Cannabinoid receptor 2 [4],129 nM
same,Activity,Cannabinoid receptor 1 [19],16%

# From ChEMBL document CHEMBL5321210, “N-adamantyl-anthranil amide derivatives: New selective ligands for the cannabinoid receptor subtype 2 (CB2R)” (Eur J Med Chem, 2023)
